# Activity calls are given as the source filed them. No cut-off for these calls is given here.
# Tests used:
# U-118-MG [1] = assay: Effect on ICAM1 mRNA expression in human U118MG cells at EC10 by qPCR method relative to beta-actin; type: functional
# U-118-MG [2] = assay: Effect on ADORA2A mRNA expression in human U118MG cells at EC10 by qPCR method relative to beta-actin; type: functional
# SH-SY5Y [3] = assay: Effect on IL10 mRNA expression in human SH-SY5Y cells at EC10 by qPCR method relative to beta-actin; type: functional
# U-118-MG [4] = assay: Effect on NFKB1 mRNA expression in human U118MG cells at EC10 by qPCR method relative to beta-actin; type: functional
# SH-SY5Y [5] = assay: Effect on ICAM1 mRNA expression in human SH-SY5Y cells at EC10 by qPCR method relative to beta-actin; type: functional
# SK-N-SH [6] = assay: Effect on IL6 mRNA expression in human SK-N-SH cells at EC10 by qPCR method relative to beta-actin; type: functional
# SK-N-SH [7] = assay: Effect on GNAS mRNA expression in human SK-N-SH cells at EC10 by qPCR method relative to beta-actin; type: functional
# U-118-MG [8] = assay: Effect on PMP22 mRNA expression in human U118MG cells at EC10 by qPCR method relative to beta-actin; type: functional
# SH-SY5Y [9] = assay: Effect on CXCL10 mRNA expression in human SH-SY5Y cells at EC10 by qPCR method relative to beta-actin; type: functional
# U-118-MG [10] = assay: Effect on VCAM1 mRNA expression in human U118MG cells at EC10 by qPCR method relative to beta-actin; type: functional
# [11] = Cytotoxicity against human SK-N-SH cells measured after 24 hrs by crystal-violet staining based assay; type: toxicity, cell-based
# SH-SY5Y [12] = assay: Effect on PMP22 mRNA expression in human SH-SY5Y cells at EC10 by qPCR method relative to beta-actin; type: functional
# U-118-MG [13] = assay: Effect on MMP9 mRNA expression in human U118MG cells at EC10 by qPCR method relative to beta-actin; type: functional
# SK-N-SH [14] = assay: Effect on CCL2 mRNA expression in human SK-N-SH cells at EC10 by qPCR method relative to beta-actin; type: functional
# SH-SY5Y [15] = assay: Effect on DRD2 mRNA expression in human SH-SY5Y cells at EC10 by qPCR method relative to beta-actin; type: functional
# SK-N-SH [16] = assay: Effect on TNF mRNA expression in human SK-N-SH cells at EC10 by qPCR method relative to beta-actin; type: functional
# SH-SY5Y [17] = assay: Effect on GNAS mRNA expression in human SH-SY5Y cells at EC10 by qPCR method relative to beta-actin; type: functional
# SK-N-SH [18] = assay: Effect on ADCY5 mRNA expression in human SK-N-SH cells at EC10 by qPCR method relative to beta-actin; type: functional
# SH-SY5Y [19] = assay: Effect on TNF mRNA expression in human SH-SY5Y cells at EC10 by qPCR method relative to beta-actin; type: functional
# SK-N-SH [20] = assay: Effect on PMP22 mRNA expression in human SK-N-SH cells at EC10 by qPCR method relative to beta-actin; type: functional
# SH-SY5Y [21] = assay: Effect on VCAM1 mRNA expression in human SH-SY5Y cells at EC10 by qPCR method relative to beta-actin; type: functional
# SH-SY5Y [22] = assay: Effect on MMP9 mRNA expression in human SH-SY5Y cells at EC10 by qPCR method relative to beta-actin; type: functional
# U-118-MG [23] = assay: Effect on TNF mRNA expression in human U118MG cells at EC10 by qPCR method relative to beta-actin; type: functional
# SH-SY5Y [24] = assay: Effect on S1PR1 mRNA expression in human SH-SY5Y cells at EC10 by qPCR method relative to beta-actin; type: functional
# SH-SY5Y [25] = assay: Effect on CCL2 mRNA expression in human SH-SY5Y cells at EC10 by qPCR method relative to beta-actin; type: functional
# SK-N-SH [26] = assay: Effect on IL10 mRNA expression in human SK-N-SH cells at EC10 by qPCR method relative to beta-actin; type: functional
# [27] = biological target: Sphingosine 1-phosphate receptor 1 (Homo sapiens) (UniProt P21453); assay: Agonist activity at sphingosine-1-phosphate receptor in human SH-SY5Y cells assessed as increase in cAMP level at EC10 by direct immunoassay; type: functional, cell-based
# Sphingosine 1-phosphate receptor 1 (Homo sapiens), sequence (P21453 whole entry): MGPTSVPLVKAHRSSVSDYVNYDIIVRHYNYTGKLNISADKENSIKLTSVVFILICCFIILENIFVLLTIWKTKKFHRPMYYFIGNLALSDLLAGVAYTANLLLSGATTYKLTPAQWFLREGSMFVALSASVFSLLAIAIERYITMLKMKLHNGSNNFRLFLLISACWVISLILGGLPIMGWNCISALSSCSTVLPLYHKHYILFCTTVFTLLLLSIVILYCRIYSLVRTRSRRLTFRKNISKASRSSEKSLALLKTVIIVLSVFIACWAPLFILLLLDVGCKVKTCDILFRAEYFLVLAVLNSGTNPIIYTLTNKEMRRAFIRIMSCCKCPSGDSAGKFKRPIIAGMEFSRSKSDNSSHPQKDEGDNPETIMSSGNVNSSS
# SK-N-SH [28] = assay: Effect on NFKB1 mRNA expression in human SK-N-SH cells at EC10 by qPCR method relative to beta-actin; type: functional
# SK-N-SH [29] = assay: Effect on S1PR1 mRNA expression in human SK-N-SH cells at EC10 by qPCR method relative to beta-actin; type: functional
# SH-SY5Y [30] = assay: Effect on ADORA2A mRNA expression in human SH-SY5Y cells at EC10 by qPCR method relative to beta-actin; type: functional
# U-118-MG [31] = assay: Effect on IL10 mRNA expression in human U118MG cells at EC10 by qPCR method relative to beta-actin; type: functional
# SH-SY5Y [32] = assay: Effect on ADCY5 mRNA expression in human SH-SY5Y cells at EC10 by qPCR method relative to beta-actin; type: functional
# SK-N-SH [33] = assay: Effect on DRD2 mRNA expression in human SK-N-SH cells at EC10 by qPCR method relative to beta-actin; type: functional
# SH-SY5Y [34] = assay: Effect on IL6 mRNA expression in human SH-SY5Y cells at EC10 by qPCR method relative to beta-actin; type: functional
# U-118-MG [35] = assay: Effect on S1PR1 mRNA expression in human U118MG cells at EC10 by qPCR method relative to beta-actin; type: functional
# SK-N-SH [36] = assay: Effect on CXCL10 mRNA expression in human SK-N-SH cells at EC10 by qPCR method relative to beta-actin; type: functional
# [37] = Cytotoxicity against human SH-SY5Y cells measured after 24 hrs by crystal-violet staining based assay; type: toxicity, cell-based
# [38] = biological target: Sphingosine 1-phosphate receptor 1 (Homo sapiens) (UniProt P21453); assay: Agonist activity at sphingosine-1-phosphate receptor human SK-N-SH cells assessed as increase in cAMP level at EC10 by direct immunoassay; type: functional, cell-based
# SK-N-SH [39] = assay: Effect on ADORA2A mRNA expression in human SK-N-SH cells at EC10 by qPCR method relative to beta-actin; type: functional
# SK-N-SH [40] = assay: Effect on EPHA1 mRNA expression in human SK-N-SH cells at EC10 by qPCR method relative to beta-actin; type: functional
# [41] = biological target: Sphingosine 1-phosphate receptor 1 (Homo sapiens) (UniProt P21453); assay: Agonist activity at sphingosine-1-phosphate receptor in human U118MG cells assessed as increase in cAMP level at EC10 by direct immunoassay; type: functional, cell-based; details: U-118-MG
# SH-SY5Y [42] = assay: Effect on TNFRSF1A mRNA expression in human SH-SY5Y cells at EC10 by qPCR method relative to beta-actin; type: functional
# SK-N-SH [43] = assay: Effect on TNFRSF1A mRNA expression in human SK-N-SH cells at EC10 by qPCR method relative to beta-actin; type: functional
# U-118-MG [44] = assay: Effect on GNAS mRNA expression in human U118MG cells at EC10 by qPCR method relative to beta-actin; type: functional
smiles,measurement,setting,value
CCCCCCCCn1nnnc1-c1ccc(C(O)CC(N)(CO)CO)cc1.Cl (centres undefined),fold change (FC),U-118-MG [1],-5.4736
same,fold change (FC),U-118-MG [2],-4.4431
same,fold change (FC),SH-SY5Y [3],-3.3797
same,fold change (FC),U-118-MG [4],-4.6974
same,fold change (FC),SH-SY5Y [5],-3.763
same,fold change (FC),SK-N-SH [6],-4.899
same,fold change (FC),SK-N-SH [7],-4.4537
same,fold change (FC),U-118-MG [8],-5.4523
same,fold change (FC),SH-SY5Y [9],-3.1588
same,fold change (FC),U-118-MG [10],-5.7757
same,EC10,[11],0.27 µM
same,fold change (FC),SH-SY5Y [12],-3.0092
same,fold change (FC),U-118-MG [13],-4.5002
same,fold change (FC),SK-N-SH [14],-4.9933
same,fold change (FC),SH-SY5Y [15],-3.4837
same,fold change (FC),SK-N-SH [16],-4.9674
same,fold change (FC),SH-SY5Y [17],-4.6852
same,fold change (FC),SK-N-SH [18],-4.6187
same,fold change (FC),SH-SY5Y [19],-3.511
same,fold change (FC),SK-N-SH [20],-5.2416
same,fold change (FC),SH-SY5Y [21],-4.0191
same,fold change (FC),SH-SY5Y [22],-3.9092
same,fold change (FC),U-118-MG [23],-6.5178
same,fold change (FC),SH-SY5Y [24],-5.0215
same,fold change (FC),SH-SY5Y [25],-4.1393
same,fold change (FC),SK-N-SH [26],-4.6028
same,Activity,[27],Active
same,fold change (FC),SK-N-SH [28],-3.6999
same,fold change (FC),SK-N-SH [29],-4.2281
same,fold change (FC),SH-SY5Y [30],-4.6048
same,fold change (FC),U-118-MG [31],-2.6793
same,fold change (FC),SH-SY5Y [32],-4.3188
same,fold change (FC),SK-N-SH [33],-4.2208
same,fold change (FC),SH-SY5Y [34],-3.0565
same,fold change (FC),U-118-MG [35],-3.8312
same,fold change (FC),SK-N-SH [36],-6.1156
same,EC10,[37],0.3 µM
same,Activity,[38],Active
same,fold change (FC),SK-N-SH [39],-4.3394
same,fold change (FC),SK-N-SH [40],-3.7516
same,Activity,[41],Active
same,fold change (FC),SH-SY5Y [42],-3.2986
same,fold change (FC),SK-N-SH [43],-4.1053
same,fold change (FC),U-118-MG [44],-3.2119

# From ChEMBL document CHEMBL3872249, “Computer design, synthesis, and bioactivity analyses of drugs like fingolimod used in the treatment of multiple sclerosis” (Bioorg Med Chem, 2017)
